Results on 1 compound are retold here after ChEMBL document CHEMBL1131175, “Use of papain as a model for the structure-based design of cathepsin K inhibitors: crystal structures of two papain-inhibitor complexes demonstrate binding to S'-subsites” (J Med Chem, 1998).

Structures are written as SMILES.

The target in this test is T1, Papain (Carica papaya, UniProt P00784).
T1 sequence (P00784 whole entry): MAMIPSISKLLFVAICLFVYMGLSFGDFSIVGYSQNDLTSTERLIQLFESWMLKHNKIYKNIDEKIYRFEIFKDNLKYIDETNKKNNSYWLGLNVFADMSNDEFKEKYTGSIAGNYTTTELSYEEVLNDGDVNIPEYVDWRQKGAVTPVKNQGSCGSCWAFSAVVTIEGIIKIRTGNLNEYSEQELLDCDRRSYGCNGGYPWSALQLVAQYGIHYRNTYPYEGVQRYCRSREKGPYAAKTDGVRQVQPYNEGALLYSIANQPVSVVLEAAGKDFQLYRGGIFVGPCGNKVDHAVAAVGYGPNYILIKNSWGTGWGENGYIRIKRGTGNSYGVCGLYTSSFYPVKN
The test can be described thus: Inhibitory activity measured against papain. The settings on record: read-out: Ki app.

In the case of `CC(C)C[C@H](NC(=O)OCc1ccccc1)C(=O)NCC(=O)CNC(=O)[C@H](CC(C)C)NC(=O)OCc1ccccc1`, the Ki is 10 µM.
